The values below come from US6204282A, “Benzimidazole compounds that are vitronectin receptor antagonists” (Schering Corporation, priority 1999, dated 2001).

The target of experiment [1] is T1, αvβ3 receptor (Homo sapiens, UniProt P05106+P06756).
T1 construct: αvβ3 receptor (purified from human placenta); from tissue; host or cells: human placenta
The experiment in a line: competition radioligand binding assay, 125I-echistatin to purified αvβ3 receptor. The settings on record: inhibition of specific binding of 125I-echistatin (0.05 nM), 3 hour incubation at room temperature.

Experiment [2] addresses αllbβ3 receptor (Homo sapiens, UniProt P05106+P08514). The experiment is described as follows: similar competitive assay with purified αllbβ3 receptor and 125I-echistatin (specificity index versus αvβ3). The format is binding. The settings on record: IC50 αllbβ3 / IC50 αvβ3. The text has this:
The specificity index, which is a measure of the relative binding affinity for αvβ3 versus αllbβ3, may be determined by dividing the IC50 value for αllbβ3by the IC50 value for αvβ3.

Consider `O=C(N[C@@H](CNC(=O)c1ccc(CN(Cc2nc3ccccc3[nH]2)C(=O)C(F)(F)F)cc1)C(=O)O)OCc1ccccc1` [Example 5-12], for which the IC50 in experiment [1] amounted to 5.6 nM. In experiment [2], the “SPECIFICITY αIIb β3/αvβ3 (specificity index)” value was determined as 87.
